In experiment [1] the target is T1, Gal4 DNA binding domain fused to the LBD of LXRα in HEK293 cells (Homo sapiens (Human), UniProt Q13133). Briefly: LXR luciferase transcriptional reporter gene assay, antagonist mode (200 nM T0901317), LXRα. It is filed as cell-based. The conditions noted are these: for pIC50: read-out: Cell LXRα IC50. In general terms: A reporter such as luciferase makes a cellular process visible.

The target in experiment [2] is T1, Gal4 DNA binding domain fused to the LBD of LXRα in HEK293 cells. Briefly: LXR luciferase transcriptional reporter gene assay, agonist mode, LXRα. It is filed as cell-based. The conditions noted are these: for pEC50: read-out: Cell LXRα EC50.
Experiment [3] concerns the target T2, LXR α LBD protein (Homo sapiens (Human), UniProt Q13133). The experiment in a line: LXR α radioligand binding assay (SPA, competition with [3H]TO901317). As to conditions: read-out: LXRα Binding Ki.
In experiment [4] the target is T2, LXR α LBD protein. Briefly: Human LXRα coactivator recruitment FRET assay, agonist mode. It counts as biochemical. The procedure, abridged:
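LXRα- or LXRβ-LBD at 10 nM (2×) mixed with compound in DMSO, then fluorescein-SRC2-3 peptide 200 nM and Tb-anti-GST antibody 20 nM (4×) added; 2 h at rt. Time-resolved FRET read, 100 µs delay, 200 µs window; EC50 from four-parameter fit of percent control.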

Experiment [5] deals with Gal4 DNA binding domain fused to the LBD of LXRβ in HEK293 cells (Homo sapiens (Human), UniProt P55055). The experiment in a line: cell-based.
Sequence of Gal4 DNA binding domain fused to the LBD of LXRβ in HEK293 cells (P55055 222-460 limits assumed): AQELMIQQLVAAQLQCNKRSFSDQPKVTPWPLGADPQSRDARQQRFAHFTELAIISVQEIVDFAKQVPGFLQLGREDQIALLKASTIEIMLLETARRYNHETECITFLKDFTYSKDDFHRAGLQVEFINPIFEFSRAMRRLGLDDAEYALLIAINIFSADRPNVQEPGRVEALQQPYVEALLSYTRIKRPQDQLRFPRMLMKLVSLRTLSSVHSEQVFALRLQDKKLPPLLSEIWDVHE
The target in experiment [6] is T3, LXR β LBD protein (Homo sapiens (Human), UniProt P55055). The experiment in a line: biochemical. It is filed as binding. The conditions noted are these: read-out: LXRβ Binding Ki.
Target sequence in this assay (P55055 222-460 limits assumed): as above
The target in experiment [7] is T3, LXR β LBD protein. Briefly: biochemical. It is filed as biochemical. The conditions noted are these: read-out: FRET LXRβ EC50.
Target sequence in this assay (P55055 222-460): as the sequence (P55055 222-460 limits assumed) above
The mark [8] stands for this setting: antagonist mode, 200 nM T0901317, HEK293 reporter gene assay.
[9] abbreviates: Biological Test Example 3, agonist mode.
The mark [10] stands for this setting: Biological Test Example 2, agonist mode.

pEC50, pIC50, pKi: −log10 of the molar value. Like-named read-outs stand apart in the source and are kept apart here.

The values below come from patent publication US10144715B2, “Piperazine derivatives as liver X receptor modulators” (priority 2014, dated 2018).

T2 sequence (Q13133 209-447): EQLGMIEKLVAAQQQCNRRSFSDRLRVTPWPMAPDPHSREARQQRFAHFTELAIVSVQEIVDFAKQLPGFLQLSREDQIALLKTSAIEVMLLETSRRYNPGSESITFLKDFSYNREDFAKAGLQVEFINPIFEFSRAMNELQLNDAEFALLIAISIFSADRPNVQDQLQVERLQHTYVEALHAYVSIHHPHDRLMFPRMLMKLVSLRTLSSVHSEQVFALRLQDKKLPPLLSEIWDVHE
T1 sequence (Q13133 209-447): as above

In the case of `CS(=O)(=O)c1cccc(N2CCN(C[C@@H]3CCC[C@@H](C(F)(F)F)C3)[C@@H](c3ccc(F)cc3)C2)c1` (single isomer, unassigned) [48-39], the “Cell LXRα efficacy” value in experiment [1] is on record as 78 (86) %. In experiment [1] (setting [8]), the pIC50 was 7.11. In experiment [2] (agonist mode), the pEC50 was less than 4.70.
`CS(=O)(=O)c1cccc(N2CCN(C[C@@H]3CCC[C@H](C(F)(F)F)C3)[C@@H](c3ccc(F)cc3)C2)c1` (single isomer, unassigned) [48-41]: the “Cell LXRα efficacy” value in experiment [1] was 421 (83) %; in experiment [2], 1459 (7) %. Further, the negative logarithm of the IC50 (pIC50) in experiment [1] (setting [8]) is 6.38. For the same compound, the pKi at LXR α LBD protein [3] is 6.71. Further, in experiment [2] (agonist mode), the pEC50 was 5.84.
Turning to `CS(=O)(=O)c1cccc(N2CCN(CC3CCN(CC(F)(F)F)CC3)[C@@H](c3ccccc3)C2)c1` (single isomer, unassigned) [48-52], the “Cell LXRα efficacy” value was 4773 (89) % in experiment [1] and 736 (30) % in experiment [2]. Besides, the pIC50 in experiment [1] (setting [8]) is 5.32. Besides, the results for the pEC50 (at LXR α LBD protein [4] (setting [9]); in experiment [2] (setting [10])) were 5.97 and 6.13, respectively. In addition, on LXR α LBD protein [4] (setting [9]), the “FRET LXRα efficacy” value came to 32%.
`CS(=O)(=O)c1cccc(N2CCN(C[C@H]3CC[C@@]4(CC3)CC4(F)F)[C@@H](c3ccccc3)C2)c1` (single isomer, unassigned) [48-69]: the pIC50 in experiment [1] is less than 5.00. Further, the pKi was 6.95 at LXR α LBD protein [3] and 7.85 at LXR β LBD protein [6] (Biological Test Example 1). Also, in experiment [5] (setting [10]), the “Cell LXRβ efficacy” value is listed as 43%. Also, the pEC50 in experiment [5] (Biological Test Example 2, agonist mode, read-out: Cell LXRβ EC50) is 6.82; in experiment [2], 6.37. In addition, the “Cell LXRα efficacy” value in experiment [2] is listed as 425 (69) %.
For `CC(C)C[C@@H]1CN(c2cccc(S(C)(=O)=O)c2)CCN1C(=O)OC(C)(C)C` [1-3, tert-butyl (R)-2-isobutyl-4-(3-(methylsulfonyl)phenyl)piperazine-1-carboxylate], in experiment [1] (setting [8]), the negative-log IC50 (pIC50) is 5.54. For the same compound, at LXR α LBD protein [4] (agonist mode), the pEC50 is 5.77 and the “FRET LXRα efficacy” value is given as 43%. In experiment [2], the “Cell LXRα efficacy” value is given as 955 (34) %. In experiment [2] (agonist mode), the pEC50 is 6.02.
Turning to `CC(C)(C)OC(=O)N1CCN(c2cccc(S(C)(=O)=O)c2)C[C@H]1Cc1ccccc1` [1-8, tert-butyl (R)-2-benzyl-4-(3-(methylsulfonyl)phenyl)piperazine-1-carboxylate], the negative logarithm of the IC50 (pIC50) in experiment [1] (setting [8]) is 5.33. For the same compound, the values for the pEC50 (at LXR α LBD protein [4] (agonist mode); in experiment [2] (agonist mode)) were 6.98 and 5.94, respectively. Moreover, the “FRET LXRα efficacy” value at LXR α LBD protein [4] (agonist mode) is recorded as 18%. Moreover, the “Cell LXRα efficacy” value in experiment [2] was 1146 (34) %.
In the case of `CC(C)[C@@H]1CN(c2ccc(C(N)=O)c(S(C)(=O)=O)c2)CCN1c1nccc(C(F)(F)F)n1` [4-2, (R)-4-(3-isopropyl-4-(4-(trifluoromethyl)pyrimidin-2-yl)piperazin-1-yl)-2-(methylsulfonyl)benzamide], in experiment [1] (setting [8]), the pIC50 is less than 5.00. Moreover, on LXR α LBD protein [4] (agonist mode), the negative-log EC50 (pEC50) is 6.53 and the “FRET LXRα efficacy” value was determined as 87%. Further, in experiment [2], the “Cell LXRα efficacy” value is on record as 1172 (71) %. Besides, the negative logarithm of the EC50 (pEC50) in experiment [2] (agonist mode) was 5.93.
The matching figures for `CC(C)[C@@H]1CN(c2cccc(S(C)(=O)=O)c2)CCN1C(=O)OCC(C)(C)C` [5-6, neopentyl (R)-2-isopropyl-4-(3-(methylsulfonyl)phenyl)piperazine-1-carboxylate]: 5.02, 6.63, 52%, 1424 (48) % and 5.85.
The matching figures for `CC(C)COC(=O)N1CCN(c2cccc(S(C)(=O)=O)c2)C[C@H]1C(C)C` [5-7, isobutyl (R)-2-isopropyl-4-(3-(methylsulfonyl)phenyl)piperazine-1-carboxylate]: 5.29, 6.47, 58%, 1919 (44) % and 5.72.
As for `CC(C)[C@@H]1CN(c2cccc(S(C)(=O)=O)c2)CCN1c1ncccn1` [7-2, (R)-2-(2-isopropyl-4-(3-(methylsulfonyl)phenyl)piperazin-1-yl)pyrimidine], the pIC50 in experiment [1] (setting [8]) is 5.26. For the same compound, on LXR α LBD protein [4] (agonist mode), the pEC50 is 5.99 and the “FRET LXRα efficacy” value is on record as 23%. Moreover, in experiment [2] (agonist mode), the pEC50 was less than 4.70.
With `CC(C)[C@@H]1CN(c2ccc(C#N)c(S(C)(=O)=O)c2)CCN1c1nccc(C(F)(F)F)n1` [7-17, (R)-4-(3-isopropyl-4-(4-(trifluoromethyl)pyrimidin-2-yl)piperazin-1-yl)-2-(methylsulfonyl)benzonitrile], in experiment [1] (setting [8]), the pIC50 is 5.22. Moreover, the “Cell LXRα efficacy” value in experiment [2] is on record as 1115 (69) %. Also, in experiment [2] (agonist mode), the pEC50 is 5.95.
For the compound `Cc1nc(N2CCN(c3ccc(F)c(S(C)(=O)=O)c3)C[C@H]2C(C)C)ncc1F` [7-23, (R)-5-fluoro-2-(4-(4-fluoro-3-(methylsulfonyl)phenyl)-2-isopropylpiperazin-1-yl)-4-methylpyrimidine], the negative logarithm of the IC50 (pIC50) in experiment [1] (setting [8]) was less than 5.00. In addition, the negative-log EC50 (pEC50) was 5.95 at LXR α LBD protein [4] (agonist mode) and 5.82 in experiment [2] (agonist mode). At LXR α LBD protein [4] (agonist mode), the “FRET LXRα efficacy” value is on record as 73%. The “Cell LXRα efficacy” value in experiment [2] is 1531 (52) %.
As to `CC(C)[C@@H]1CN(c2cccc(S(C)(=O)=O)c2)CCN1c1ccnc(C(F)(F)F)n1` [7-50, (R)-4-(2-isopropyl-4-(3-(methylsulfonyl)phenyl)piperazin-1-yl)-2-(trifluoromethyl)pyrimidine], the “Cell LXRα efficacy” value in experiment [1] was 4587 (78) %; in experiment [2], 2029 (50) %. Also, the pIC50 in experiment [1] (setting [8]) is 5.34. Moreover, the pEC50 on LXR α LBD protein [4] (agonist mode) is 6.53; in experiment [2] (agonist mode) it was 5.69. Besides, the “FRET LXRα efficacy” value at LXR α LBD protein [4] (agonist mode) is given as 59%.
For the compound `COCCN(C)Cc1cnc(N2CCN(c3ccc(F)c(S(C)(=O)=O)c3)C[C@H]2C(C)C)nc1C(F)(F)F` [15-10, (R)-N-((2-(4-(4-fluoro-3-(methylsulfonyl)phenyl)-2-isopropylpiperazin-1-yl)-4-(trifluoromethyl)pyrimidin-5-yl)methyl)-2-methoxy-N-methylethan-1-amine], the pIC50 in experiment [1] (setting [8]) was 5.79. The pKi at LXR α LBD protein [3] was 6.02. For the same compound, the “Cell LXRα efficacy” value in experiment [2] is on record as 5353 (16) %. Also, the negative logarithm of the EC50 (pEC50) in experiment [2] (agonist mode) was 5.27.
`CS(=O)(=O)c1cccc(N2CCN(Cc3ccc(C(F)(F)F)c(Cl)c3)C(C3CCCCC3)C2)c1` (stereo not shown) [46-27, 1-(3-chloro-4-(trifluoromethyl)benzyl)-2-cyclohexyl-4-(3-(methylsulfonyl)phenyl)piperazine]: the pIC50 in experiment [1] (setting [8]) was less than 5.00. On LXR α LBD protein [4] (agonist mode), the pEC50 is 6.80 and the “FRET LXRα efficacy” value is given as 79%. Also, the “Cell LXRα efficacy” value in experiment [2] is reported as 1100 (77) %. In experiment [2] (agonist mode), the pEC50 was 5.96.
With `CS(=O)(=O)c1cccc(N2CCN(C[C@H]3CCC[C@H](C(F)(F)F)C3)[C@@H](c3ccc(F)cc3)C2)c1` [48-40, (S)-2-(4-fluorophenyl)-4-(3-(methylsulfonyl)phenyl)-1-(((1S,3S)-3-(trifluoromethyl)cyclohexyl)methyl)piperazine], the negative-log IC50 (pIC50) in experiment [1] (setting [8]) is less than 5.00. At LXR α LBD protein [3], the pKi is 5.61. Besides, the pEC50 in experiment [2] (agonist mode) is less than 4.70.
As for `CS(=O)(=O)c1cccc(N2CCN(CC3CCCOC3)[C@@H](c3ccccc3)C2)c1` (stereo partly drawn) [51-4, (2S)-4-(3-(methylsulfonyl)phenyl)-2-phenyl-1-((tetrahydro-2H-pyran-3-yl)methyl)piperazine], the pEC50 was less than 4.30 at LXR β LBD protein [7], less than 4.30 on LXR α LBD protein [4] (setting [9]), less than 4.70 in experiment [5] and less than 4.70 in experiment [2]. The figures for the pKi at LXR α LBD protein [3] and at LXR β LBD protein [6] were less than 5.48 and 6.26, respectively.
For the compound `CS(=O)(=O)c1cccc(N2CCN(CC3CCOCC3)[C@@H](c3ccccc3)C2)c1` [51-5, (S)-4-(3-(methylsulfonyl)phenyl)-2-phenyl-1-((tetrahydro-2H-pyran-4-yl)methyl)piperazine], the pEC50 at LXR β LBD protein [7] is less than 4.30; at LXR α LBD protein [4] (setting [9]), less than 4.30; in experiment [5], less than 4.70; in experiment [2] it was less than 4.70. Besides, the pKi at LXR α LBD protein [3] is less than 5.48; on LXR β LBD protein [6] (Biological Test Example 1), 5.99.
Regarding `CC(C)[C@@H]1CN(c2cccc(S(C)(=O)=O)c2)CCN1c1ncc(Cl)cn1` [Cpd No 7-4, (R)-5-chloro-2-(2-isopropyl-4-(3-(methylsulfonyl)phenyl)piperazin-1-yl)pyrimidine], the pIC50 in experiment [1] (setting [8]) is less than 5.00. Besides, at LXR α LBD protein [4] (agonist mode), the pEC50 was 6.55 and the “FRET LXRα efficacy” value came out at 76%. Moreover, the “Cell LXRα efficacy” value in experiment [2] was 1219 (70) %. In addition, the pEC50 in experiment [2] (agonist mode) was 5.91.
Take `CC(C)[C@@H]1CN(c2ccc(F)c(S(C)(=O)=O)c2)CCN1c1ncc(Cc2ccc(C(=O)O)cc2)c(C(F)(F)F)n1` [Cpd No 32-1, (R)-4-((2-(4-(4-fluoro-3-(methylsulfonyl)phenyl)-2-isopropylpiperazin-1-yl)-4-(trifluoromethyl)pyrimidin-5-yl)methyl)benzoic acid]: the negative-log IC50 (pIC50) in experiment [1] is 6.26. At LXR α LBD protein [3], the pKi was 6.71. Moreover, in experiment [2], the “Cell LXRα efficacy” value is given as 4667 (6) % and the negative-log EC50 (pEC50) is 5.33.

The term pIC50 denotes −log10 of the IC50, conventionally taken in molar units. What is called pEC50 is −log10 of the EC50, conventionally taken in molar units. By pKi is commonly meant the Ki on a negative log10 scale, so that one unit is a factor of ten.
